{"source": "patent US20100041089A1", "about": "“IMPROVED METHOD FOR DETECTING CHEMICAL […]” (priority 2006, published 2010)", "test_system": "yeast genes (expressed mRNA)", "test": "DNA chip measurement of expressed mRNA of yeast genes after culture with a toxic chemical substance", "format": "cell-based, Saccharomyces cerevisiae S288C", "settings": "for level of expressed mRNA in the presence of chemical substance / level in the absence of chemical substance: cultured two hours with the chemical substance; for The level of expressed mRNA in the presence of chemical substance/The level of expressed mRNA in the absence of chemical substance: cultured two hours with substance", "in_short": "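S. cerevisiae S288C grown at 25 °C in YPD, exposed in log phase for 2 h to a toxicant at growth-inhibiting, non-lethal concentration. Cy3/Cy5-labelled cDNA from poly(A) mRNA hybridized to whole-genome chip at 65 °C >12 h. Ratio to untreated control, ≥2 significant.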"}
{"compound": "[Cl][Pb][Cl]", "note": "[(4), PbCl2]", "values": [{"measurement": "level of expressed mRNA in the presence of chemical substance / level in the absence of chemical substance", "setting": "yeast gene YDR133C", "result": 2.0}, {"measurement": "level of expressed mRNA in the presence of chemical substance / level in the absence of chemical substance", "setting": "yeast gene YDR250C", "result": 3.0}, {"measurement": "level of expressed mRNA in the presence of chemical substance / level in the absence of chemical substance", "setting": "yeast gene YDR278C", "result": 1.0}, {"measurement": "level of expressed mRNA in the presence of chemical substance / level in the absence of chemical substance", "setting": "yeast gene YDR281C", "result": 2.1}, {"measurement": "The level of expressed mRNA in the presence of chemical substance/The level of expressed mRNA in the absence of chemical substance", "setting": "yeast gene YDR330W", "result": 0.8}, {"measurement": "level of expressed mRNA in the presence of chemical substance / level in the absence of chemical substance", "setting": "yeast gene YDR366C", "result": 0.9}, {"measurement": "The level of expressed mRNA in the presence of chemical substance/The level of expressed mRNA in the absence of chemical substance", "setting": "yeast gene YDR411C", "result": 1.2}, {"measurement": "The level of expressed mRNA in the presence of chemical substance/The level of expressed mRNA in the absence of chemical substance", "setting": "yeast gene YDR511W", "result": 2.3}, {"measurement": "The level of expressed mRNA in the presence of chemical substance/The level of expressed mRNA in the absence of chemical substance", "setting": "yeast gene YDR545W", "result": 0.7}, {"measurement": "The level of expressed mRNA in the presence of chemical substance/The level of expressed mRNA in the absence of chemical substance", "setting": "yeast gene YEL001C", "result": 0.7}, {"measurement": "The level of expressed mRNA in the presence of chemical substance/The level of expressed mRNA in the absence of chemical substance", "setting": "yeast gene YER004W", "result": 1.4}, {"measurement": "The level of expressed mRNA in the presence of chemical substance/The level of expressed mRNA in the absence of chemical substance", "setting": "yeast gene YER035W", "result": 1.9}, {"measurement": "The level of expressed mRNA in the presence of chemical substance/The level of expressed mRNA in the absence of chemical substance", "setting": "yeast gene YER079W", "result": 2.0}, {"measurement": "The level of expressed mRNA in the presence of chemical substance/The level of expressed mRNA in the absence of chemical substance", "setting": "yeast gene YER106W", "result": 1.2}, {"measurement": "The level of expressed mRNA in the presence of chemical substance/The level of expressed mRNA in the absence of chemical substance", "setting": "yeast gene YER158C", "result": 3.1}, {"measurement": "The level of expressed mRNA in the presence of chemical substance/The level of expressed mRNA in the absence of chemical substance", "setting": "yeast gene YER163C", "result": 1.6}, {"measurement": "The level of expressed mRNA in the presence of chemical substance/The level of expressed mRNA in the absence of chemical substance", "setting": "yeast gene YER175C", "result": 2.2}, {"measurement": "The level of expressed mRNA in the presence of chemical substance/The level of expressed mRNA in the absence of chemical substance", "setting": "yeast gene YFL006W", "result": 1.0}, {"measurement": "The level of expressed mRNA in the presence of chemical substance/The level of expressed mRNA in the absence of chemical substance", "setting": "yeast gene YFL010C", "result": 1.0}, {"measurement": "The level of expressed mRNA in the presence of chemical substance/The level of expressed mRNA in the absence of chemical substance", "setting": "yeast gene YFL024C", "result": 0.7}, {"measurement": "The level of expressed mRNA in the presence of chemical substance/The level of expressed mRNA in the absence of chemical substance", "setting": "yeast gene YFL032W", "result": 0.8}, {"measurement": "level of expressed mRNA in the presence of chemical substance / level in the absence of chemical substance", "setting": "yeast gene YFR026C", "result": 0.8}, {"measurement": "The level of expressed mRNA in the presence of chemical substance/The level of expressed mRNA in the absence of chemical substance", "setting": "yeast gene YGL037C", "result": 2.1}, {"measurement": "The level of expressed mRNA in the presence of chemical substance/The level of expressed mRNA in the absence of chemical substance", "setting": "yeast gene YGL047W", "result": 2.3}, {"measurement": "The level of expressed mRNA in the presence of chemical substance/The level of expressed mRNA in the absence of chemical substance", "setting": "yeast gene YGL053W", "result": 2.5}, {"measurement": "level of expressed mRNA in the presence of chemical substance / level in the absence of chemical substance", "setting": "yeast gene YGL088W", "result": 1.1}, {"measurement": "The level of expressed mRNA in the presence of chemical substance/The level of expressed mRNA in the absence of chemical substance", "setting": "yeast gene YGL121C", "result": 4.2}, {"measurement": "The level of expressed mRNA in the presence of chemical substance/The level of expressed mRNA in the absence of chemical substance", "setting": "yeast gene YGL199C", "result": 1.0}, {"measurement": "level of expressed mRNA in the presence of chemical substance / level in the absence of chemical substance", "setting": "yeast gene YGR038W", "result": 0.8}, {"measurement": "The level of expressed mRNA in the presence of chemical substance/The level of expressed mRNA in the absence of chemical substance", "setting": "yeast gene YGR101W", "result": 1.1}, {"measurement": "The level of expressed mRNA in the presence of chemical substance/The level of expressed mRNA in the absence of chemical substance", "setting": "yeast gene YGR110W", "result": 5.9}, {"measurement": "The level of expressed mRNA in the presence of chemical substance/The level of expressed mRNA in the absence of chemical substance", "setting": "yeast gene YGR130C", "result": 1.6}, {"measurement": "level of expressed mRNA in the presence of chemical substance / level in the absence of chemical substance", "setting": "yeast gene YGR139W", "result": 0.7}, {"measurement": "The level of expressed mRNA in the presence of chemical substance/The level of expressed mRNA in the absence of chemical substance", "setting": "yeast gene YGR154C", "result": 0.5}, {"measurement": "The level of expressed mRNA in the presence of chemical substance/The level of expressed mRNA in the absence of chemical substance", "setting": "yeast gene YGR221C", "result": 1.4}, {"measurement": "level of expressed mRNA in the presence of chemical substance / level in the absence of chemical substance", "setting": "yeast gene YGR243W", "result": 5.0}, {"measurement": "level of expressed mRNA in the presence of chemical substance / level in the absence of chemical substance", "setting": "yeast gene YGR293C", "result": 0.0}, {"measurement": "level of expressed mRNA in the presence of chemical substance / level in the absence of chemical substance", "setting": "yeast gene YHL006C", "result": 0.6}, {"measurement": "level of expressed mRNA in the presence of chemical substance / level in the absence of chemical substance", "setting": "yeast gene YHR095W", "result": 2.1}, {"measurement": "level of expressed mRNA in the presence of chemical substance / level in the absence of chemical substance", "setting": "yeast gene YHR105W", "result": 6.3}, {"measurement": "The level of expressed mRNA in the presence of chemical substance/The level of expressed mRNA in the absence of chemical substance", "setting": "yeast gene YHR138C", "result": 2.8}, {"measurement": "level of expressed mRNA in the presence of chemical substance / level in the absence of chemical substance", "setting": "yeast gene YHR181W", "result": 1.4}, {"measurement": "The level of expressed mRNA in the presence of chemical substance/The level of expressed mRNA in the absence of chemical substance", "setting": "yeast gene YHR199C", "result": 2.0}, {"measurement": "The level of expressed mRNA in the presence of chemical substance/The level of expressed mRNA in the absence of chemical substance", "setting": "yeast gene YIL023C", "result": 1.8}, {"measurement": "The level of expressed mRNA in the presence of chemical substance/The level of expressed mRNA in the absence of chemical substance", "setting": "yeast gene YIL041W", "result": 1.3}, {"measurement": "The level of expressed mRNA in the presence of chemical substance/The level of expressed mRNA in the absence of chemical substance", "setting": "yeast gene YIL087C", "result": 1.6}, {"measurement": "level of expressed mRNA in the presence of chemical substance / level in the absence of chemical substance", "setting": "yeast gene YIL127C", "result": 1.2}, {"measurement": "level of expressed mRNA in the presence of chemical substance / level in the absence of chemical substance", "setting": "yeast gene YJL017W", "result": 1.1}, {"measurement": "level of expressed mRNA in the presence of chemical substance / level in the absence of chemical substance", "setting": "yeast gene YJL037W", "result": 2.4}, {"measurement": "The level of expressed mRNA in the presence of chemical substance/The level of expressed mRNA in the absence of chemical substance", "setting": "yeast gene YJL057C", "result": 1.7}, {"measurement": "The level of expressed mRNA in the presence of chemical substance/The level of expressed mRNA in the absence of chemical substance", "setting": "yeast gene YJL066C", "result": 2.5}, {"measurement": "The level of expressed mRNA in the presence of chemical substance/The level of expressed mRNA in the absence of chemical substance", "setting": "yeast gene YJL082W", "result": 1.1}]}
